{
  "source": "paper PMC7317746",
  "about": "(Environmental and Molecular Mutagenesis, 2020)",
  "system": "male Sprague Dawley rats",
  "assay": "Pig‐a assay",
  "type": "in vivo, rat",
  "key": {"[1]": {"conditions": "1-Month Study, 40 mg/kg/day Days 1-3, Day 15, positive control"}, "[2]": {"conditions": "1-Month Study, 40 mg/kg/day Days 1-3, Day 29, positive control"}, "[3]": {"conditions": "1-Month Study, 40 mg/kg/day, Day -1 (pre-treatment)"}, "[4]": {"conditions": "3-Day Study, 40 mg/kg/day Days 1-3, Day 15, positive control"}, "[5]": {"conditions": "3-Day Study, 40 mg/kg/day Days 1-3, Day 30, positive control"}, "[6]": {"conditions": "3-Day Study, 40 mg/kg/day Days 1-3, Day 45, positive control"}, "[7]": {"conditions": "3-Day Study, 40 mg/kg/day, Day -4 (pre-treatment)"}},
  "data": [
    {"compound": "CCN(N=O)C(N)=O", "note": "[ENU, N‐ethyl‐N‐nitrosourea]", "values": [
      {"measurement": "%RETs mean ± SD", "setting": "[1]", "result": "3.1 ± 0.4", "unit": "%"},
      {"measurement": "Number of CD59‐Neg RBCs per 10^6 RBCs mean ± SD", "setting": "[1]", "result": "79.5 ± 12.3", "unit": "per 10^6 RBCs"},
      {"measurement": "Number of CD59‐Neg RETs per 10^6 RETs mean ± SD", "setting": "[1]", "result": "356.2 ± 64.4", "unit": "per 10^6 RETs"},
      {"measurement": "%RETs mean ± SD", "setting": "[2]", "result": "3.7 ± 0.7", "unit": "%"},
      {"measurement": "Number of CD59‐Neg RBCs per 10^6 RBCs mean ± SD", "setting": "[2]", "result": "211.0 ± 26.9", "unit": "per 10^6 RBCs"},
      {"measurement": "Number of CD59‐Neg RETs per 10^6 RETs mean ± SD", "setting": "[2]", "result": "291.4 ± 33.7", "unit": "per 10^6 RETs"},
      {"measurement": "%RETs mean ± SD", "setting": "[3]", "result": "4.8 ± 0.7", "unit": "%"},
      {"measurement": "Number of CD59‐Neg RBCs per 10^6 RBCs mean ± SD", "setting": "[3]", "result": "0.6 ± 0.3", "unit": "per 10^6 RBCs"},
      {"measurement": "Number of CD59‐Neg RETs per 10^6 RETs mean ± SD", "setting": "[3]", "result": "0.5 ± 0.5", "unit": "per 10^6 RETs"},
      {"measurement": "%RETs mean ± SD", "setting": "[4]", "result": "3.3 ± 1.1", "unit": "%"},
      {"measurement": "Number of CD59‐Neg RBCs per 10^6 RBCs mean ± SD", "setting": "[4]", "result": "97.7 ± 7.2", "unit": "per 10^6 RBCs"},
      {"measurement": "Number of CD59‐Neg RETs per 10^6 RETs mean ± SD", "setting": "[4]", "result": "414.2 ± 6.5", "unit": "per 10^6 RETs"},
      {"measurement": "%RETs mean ± SD", "setting": "[5]", "result": "3.3 ± 0.6", "unit": "%"},
      {"measurement": "Number of CD59‐Neg RBCs per 10^6 RBCs mean ± SD", "setting": "[5]", "result": "256.7 ± 62.0", "unit": "per 10^6 RBCs"},
      {"measurement": "Number of CD59‐Neg RETs per 10^6 RETs mean ± SD", "setting": "[5]", "result": "282.7 ± 77.4", "unit": "per 10^6 RETs"},
      {"measurement": "%RETs mean ± SD", "setting": "[6]", "result": "2.7 ± 0.7", "unit": "%"},
      {"measurement": "Number of CD59‐Neg RBCs per 10^6 RBCs mean ± SD", "setting": "[6]", "result": "382.7 ± 26.3", "unit": "per 10^6 RBCs"},
      {"measurement": "Number of CD59‐Neg RETs per 10^6 RETs mean ± SD", "setting": "[6]", "result": "305.9 ± 59.5", "unit": "per 10^6 RETs"},
      {"measurement": "%RETs mean ± SD", "setting": "[7]", "result": "3.2 ± 0.4", "unit": "%"},
      {"measurement": "Number of CD59‐Neg RBCs per 10^6 RBCs mean ± SD", "setting": "[7]", "result": "0.4 ± 0.1", "unit": "per 10^6 RBCs"},
      {"measurement": "Number of CD59‐Neg RETs per 10^6 RETs mean ± SD", "setting": "[7]", "result": "1.6 ± 0.7", "unit": "per 10^6 RETs"}
    ]}
  ]
}
